Holding throughout (assay type): biochemical
Assay [1] has as its target T1, Human plasma kallikrein (h PK) (Homo sapiens, UniProt P03952).
T1 construct: purchased Enzyme Research Laboratories
The assay can be described thus: Inhibition of human plasma kallikrein (reference enzyme). The note with it: S2302 substrate. On the procedure:
(§1) The inhibitory effect against the individual purified enzymes was determined in analogy to a previously disclosed method (Stürzebecher et al., J. Med. Chem., 40, 3091-3099 (1997)).
(§2) The release of p-nitroaniline (p-NA, the chromogenic product of the proteolytic activity), was determined by change in absorbance at 405 nm. The equilibrium rates were used to calculate the inhibitor/enzyme dissociation constant (Ki values) by parameter fitting in accordance with the rate equation for competitive inhibition using GraFit (version 4 from Erithacus). The results are reported as Ki values (nanomolar) in table 7 and are the average of at least three determinations.
(§3) Dissociation constants were calculated as described herein.

For assay [2], the target named is T2, Human urokinase type plasminogen activator (h u-PA) (Homo sapiens, UniProt P00749).
T2 construct: purchased MEDAC GmbH Urokinase HS medac
The assay can be described thus: Inhibition of human urokinase type plasminogen activator (reference enzyme). The conditions noted are these: H-Glu-Gly-Arg-pNA substrate. The method, then: as §1, §2, §3

Assay [3] addresses T3, Human Activated Protein C (h aPC) (Homo sapiens, UniProt P04070).
T3 construct: purchased Enzyme Research Laboratories
The assay can be described thus: Inhibition of human activated protein C (reference enzyme). The note with it: Pefachrome PCa substrate. On the procedure: as §1, §2, §3

For assay [4], the target named is T4, Human tissue-type plasminogen activator (h t-PA) (Homo sapiens, UniProt P00750).
T4 construct: purchased Boehringer Ingelheim Actilyse
T4 sequence (P00750 36-562): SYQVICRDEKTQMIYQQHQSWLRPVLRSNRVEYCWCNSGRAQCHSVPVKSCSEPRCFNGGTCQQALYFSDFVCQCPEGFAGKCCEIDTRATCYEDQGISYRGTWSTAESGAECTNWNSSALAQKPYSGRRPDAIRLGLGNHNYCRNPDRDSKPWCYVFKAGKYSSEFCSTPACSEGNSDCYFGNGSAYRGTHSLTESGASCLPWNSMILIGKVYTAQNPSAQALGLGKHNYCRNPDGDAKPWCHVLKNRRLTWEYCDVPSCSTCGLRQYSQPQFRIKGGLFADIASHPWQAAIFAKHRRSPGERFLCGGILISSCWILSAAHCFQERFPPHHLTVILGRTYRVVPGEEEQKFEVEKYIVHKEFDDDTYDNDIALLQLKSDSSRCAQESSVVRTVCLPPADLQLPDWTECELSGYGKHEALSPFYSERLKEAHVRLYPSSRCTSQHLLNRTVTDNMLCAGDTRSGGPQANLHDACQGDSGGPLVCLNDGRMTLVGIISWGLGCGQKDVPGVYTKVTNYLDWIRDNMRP
The assay can be described thus: Inhibition of human tissue-type plasminogen activator (reference enzyme). The note with it: Pefachrome tPA substrate; read-out: Ki h t-PA. The method, then:
The equilibrium rates were used to calculate the inhibitor/enzyme dissociation constant (Ki values) by parameter fitting in accordance with the rate equation for competitive inhibition using GraFit (version 4 from Erithacus).
as §3

The target of the next assay is T5, human Factor Xa (Homo sapiens, UniProt P00742).
T5 construct: human Factor Xa from Enzyme Research Laboratories; purchased Enzyme Research Laboratories
T5 sequence (P00742 235-488 limits assumed): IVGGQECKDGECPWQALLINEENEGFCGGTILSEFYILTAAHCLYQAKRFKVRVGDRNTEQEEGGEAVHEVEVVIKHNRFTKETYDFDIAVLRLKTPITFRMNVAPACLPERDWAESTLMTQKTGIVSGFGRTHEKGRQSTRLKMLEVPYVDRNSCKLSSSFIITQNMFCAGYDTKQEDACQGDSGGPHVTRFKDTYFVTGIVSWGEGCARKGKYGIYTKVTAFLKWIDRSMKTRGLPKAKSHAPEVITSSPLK
T5 sequence (P00742 41-179 partner limits assumed): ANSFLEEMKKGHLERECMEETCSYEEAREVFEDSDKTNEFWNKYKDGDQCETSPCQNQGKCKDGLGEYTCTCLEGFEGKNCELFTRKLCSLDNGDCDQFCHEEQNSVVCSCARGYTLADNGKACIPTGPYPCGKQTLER
The experiment in a line: Inhibition constants for human factor Xa, chromogenic substrate assay. The conditions noted are these: 25° C., Pefachrome FXa substrate, average of at least three determinations; read-out: Ki h FXa. On the procedure:
as §1
(§4) 200 μL of TBS (0.05 M trishydroxymethylaminomethane; 0.154 M NaCl, 2% ethanol, pH 8.0)
as §2

Assay [5] addresses T6, human factor IIa (human alpha-thrombin) (Homo sapiens, UniProt P00734).
T6 construct: human alpha-thrombin from Enzyme Research Laboratories; purchased Enzyme Research Laboratories
The experiment in a line: Inhibition constants for human factor IIa, chromogenic substrate assay. The conditions noted are these: 25° C., Pefachrome tPA substrate, average of at least three determinations; read-out: Ki h FIIa. On the procedure: as §1, §4, §2

Assay [6] deals with T7, Human urinary kallikrein (h uKK) (Homo sapiens, UniProt P06870).
T7 construct: purchased Lee Biosolutions
T7 sequence (P06870 25-262): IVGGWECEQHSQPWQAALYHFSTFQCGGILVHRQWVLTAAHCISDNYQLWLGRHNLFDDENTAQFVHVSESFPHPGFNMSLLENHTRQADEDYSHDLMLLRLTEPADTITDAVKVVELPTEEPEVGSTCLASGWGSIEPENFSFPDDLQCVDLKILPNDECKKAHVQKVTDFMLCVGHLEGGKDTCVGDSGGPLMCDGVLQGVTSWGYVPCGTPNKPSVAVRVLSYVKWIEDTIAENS
The experiment in a line: Inhibition of human urinary kallikrein (reference enzyme). The conditions noted are these: S-2266 substrate. The method, then:
as §1, §2, §3

Assay [7] concerns the target T8, Subcomponent "s" of Human Complement Component 1 (h C1s) (Homo sapiens, UniProt P09871).
T8 construct: purchased Calbiochem
T8 sequence (P09871 438-688 limits assumed): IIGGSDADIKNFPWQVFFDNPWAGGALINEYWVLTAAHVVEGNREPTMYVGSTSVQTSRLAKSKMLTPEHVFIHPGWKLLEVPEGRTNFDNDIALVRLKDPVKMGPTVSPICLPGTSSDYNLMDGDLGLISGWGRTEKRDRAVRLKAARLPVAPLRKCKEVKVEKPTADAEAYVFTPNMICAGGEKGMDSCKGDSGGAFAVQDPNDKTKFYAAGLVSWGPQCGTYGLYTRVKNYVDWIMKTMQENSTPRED
T8 sequence (P09871 16-437 partner limits assumed): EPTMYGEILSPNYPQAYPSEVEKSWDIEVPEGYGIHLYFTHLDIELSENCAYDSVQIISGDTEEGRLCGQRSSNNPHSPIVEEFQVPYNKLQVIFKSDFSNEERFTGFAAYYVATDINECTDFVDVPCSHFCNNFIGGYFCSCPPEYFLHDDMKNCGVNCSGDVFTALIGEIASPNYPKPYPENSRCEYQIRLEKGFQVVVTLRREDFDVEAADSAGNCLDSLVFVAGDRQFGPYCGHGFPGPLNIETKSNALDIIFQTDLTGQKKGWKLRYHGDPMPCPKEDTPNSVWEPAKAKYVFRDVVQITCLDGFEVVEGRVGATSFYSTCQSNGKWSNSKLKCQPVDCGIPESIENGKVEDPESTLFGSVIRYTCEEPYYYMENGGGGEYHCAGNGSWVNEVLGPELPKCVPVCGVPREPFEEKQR
The assay can be described thus: Inhibition of human C1s (reference enzyme). The conditions noted are these: S-2314 substrate; read-out: Ki h Cls. On the procedure: as §1, §2, §3

In assay [8] the target is T9, Human plasmin (h plasmin) (Homo sapiens, UniProt P00747).
T9 construct: purchased Calbiochem
T9 sequence (P00747 581-810 limits assumed): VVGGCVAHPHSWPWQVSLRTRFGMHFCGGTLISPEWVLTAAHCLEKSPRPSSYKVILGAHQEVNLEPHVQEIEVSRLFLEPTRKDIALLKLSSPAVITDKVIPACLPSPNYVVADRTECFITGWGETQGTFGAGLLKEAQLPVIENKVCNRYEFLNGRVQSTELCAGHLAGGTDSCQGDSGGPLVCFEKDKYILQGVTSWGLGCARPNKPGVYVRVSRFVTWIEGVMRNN
T9 sequence (P00747 97-580 partner limits assumed): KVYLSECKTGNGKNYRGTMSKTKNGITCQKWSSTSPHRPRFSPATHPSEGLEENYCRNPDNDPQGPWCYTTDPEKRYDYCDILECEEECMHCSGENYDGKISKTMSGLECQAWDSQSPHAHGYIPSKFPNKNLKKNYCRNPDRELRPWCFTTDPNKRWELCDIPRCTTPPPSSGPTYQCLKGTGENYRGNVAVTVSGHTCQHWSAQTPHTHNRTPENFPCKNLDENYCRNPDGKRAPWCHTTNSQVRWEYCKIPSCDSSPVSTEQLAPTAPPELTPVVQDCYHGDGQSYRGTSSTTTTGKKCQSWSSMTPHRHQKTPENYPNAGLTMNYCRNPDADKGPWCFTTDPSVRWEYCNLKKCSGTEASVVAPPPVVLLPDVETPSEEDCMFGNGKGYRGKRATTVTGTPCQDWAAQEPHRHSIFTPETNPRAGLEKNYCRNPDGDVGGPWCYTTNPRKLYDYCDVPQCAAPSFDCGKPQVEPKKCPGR
The experiment in a line: Inhibition of human plasmin (reference enzyme). The note with it: Chromozym PL substrate. The method, then: as §1, §2, §3

Assay [9] addresses T10, Subcomponent "r" of Human Complement Component 1 (h C1r) (Homo sapiens, UniProt P00736).
T10 construct: purchased Calbiochem
T10 sequence (P00736 464-705 limits assumed): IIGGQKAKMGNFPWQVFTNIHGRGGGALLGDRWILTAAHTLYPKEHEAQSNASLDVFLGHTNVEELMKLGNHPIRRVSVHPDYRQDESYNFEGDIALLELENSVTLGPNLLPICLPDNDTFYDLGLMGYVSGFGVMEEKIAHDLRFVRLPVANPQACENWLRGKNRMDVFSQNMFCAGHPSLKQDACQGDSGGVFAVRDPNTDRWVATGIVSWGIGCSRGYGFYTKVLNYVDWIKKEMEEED
T10 sequence (P00736 18-463 partner limits assumed): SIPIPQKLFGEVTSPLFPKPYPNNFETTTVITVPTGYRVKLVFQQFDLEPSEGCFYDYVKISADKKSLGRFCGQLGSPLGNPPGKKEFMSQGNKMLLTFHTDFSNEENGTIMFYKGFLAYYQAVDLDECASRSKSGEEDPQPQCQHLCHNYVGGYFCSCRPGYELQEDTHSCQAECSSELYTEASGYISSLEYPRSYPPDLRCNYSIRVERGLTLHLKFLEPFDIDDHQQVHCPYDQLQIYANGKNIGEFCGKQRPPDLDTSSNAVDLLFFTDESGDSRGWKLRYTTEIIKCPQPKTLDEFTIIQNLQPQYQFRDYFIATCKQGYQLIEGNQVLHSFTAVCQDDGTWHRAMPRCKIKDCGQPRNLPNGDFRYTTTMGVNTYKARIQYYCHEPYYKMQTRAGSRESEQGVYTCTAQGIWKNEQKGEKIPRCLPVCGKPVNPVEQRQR
The assay can be described thus: Inhibition of human C1r (reference enzyme). The conditions noted are these: S-2314 substrate; read-out: Ki h Clr. On the procedure:
as §1, §2, §3

In patent US8497245B2, “Trypsin-like serine protease inhibitors, their preparation and use as selective inhibitors of the clotting factors IIa and Xa” (The Medicines Company (Leipzig) GmbH, priority 2010, dated 2013) one finds Ki data, which are given here for 11 compounds.

T1 sequence (P03952 391-638 limits assumed): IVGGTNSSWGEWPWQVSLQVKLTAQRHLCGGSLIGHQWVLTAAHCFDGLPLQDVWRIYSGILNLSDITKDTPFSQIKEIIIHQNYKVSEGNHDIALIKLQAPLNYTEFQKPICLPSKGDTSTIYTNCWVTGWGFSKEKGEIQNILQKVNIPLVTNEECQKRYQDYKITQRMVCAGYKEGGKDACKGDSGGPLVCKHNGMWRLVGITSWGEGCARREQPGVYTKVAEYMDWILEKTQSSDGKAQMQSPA
T1 sequence (P03952 20-390 partner limits assumed): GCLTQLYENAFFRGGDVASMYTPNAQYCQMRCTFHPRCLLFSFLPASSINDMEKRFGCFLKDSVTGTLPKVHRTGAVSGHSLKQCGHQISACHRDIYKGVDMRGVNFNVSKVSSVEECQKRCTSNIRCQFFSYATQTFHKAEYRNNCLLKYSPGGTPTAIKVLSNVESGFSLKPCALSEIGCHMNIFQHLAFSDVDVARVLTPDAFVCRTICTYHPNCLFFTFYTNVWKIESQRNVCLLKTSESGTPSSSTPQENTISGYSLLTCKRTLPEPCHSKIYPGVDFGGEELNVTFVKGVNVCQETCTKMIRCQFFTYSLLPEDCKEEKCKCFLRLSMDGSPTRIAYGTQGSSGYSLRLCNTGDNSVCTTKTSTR
T3 sequence (P04070 212-450 limits assumed): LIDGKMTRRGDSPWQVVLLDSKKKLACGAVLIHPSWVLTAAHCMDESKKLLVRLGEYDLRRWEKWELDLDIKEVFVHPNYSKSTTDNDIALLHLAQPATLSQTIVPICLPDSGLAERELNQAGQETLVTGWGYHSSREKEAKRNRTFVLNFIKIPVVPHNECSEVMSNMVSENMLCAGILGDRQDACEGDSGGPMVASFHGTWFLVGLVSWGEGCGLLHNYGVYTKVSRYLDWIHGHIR
T3 sequence (P04070 43-197 partner limits assumed): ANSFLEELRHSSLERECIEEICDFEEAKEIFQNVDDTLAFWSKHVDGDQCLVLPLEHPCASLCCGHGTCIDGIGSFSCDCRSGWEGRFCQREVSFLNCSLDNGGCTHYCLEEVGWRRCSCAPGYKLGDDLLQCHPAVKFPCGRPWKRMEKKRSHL

As to `NCc1ccc(Cl)cc1CNC(=O)[C@@H]1C[C@@H](N)CN1C(=O)[C@@H](CC(=O)N1CCNCC1)NS(=O)(=O)Cc1ccccc1` [Compound 2.5], the Ki in assay [1] is 0.639 µM; in assay [2] it was greater than 100 µM; in [3] it was greater than 20 µM; in assay [4], 9.27 µM; on human Factor Xa, 2.8 nM; in [5], 0.018 µM. In addition, the Ki in assay [6] is greater than 100 µM; in assay [7], greater than 20 µM; in assay [8], greater than 10 µM; in assay [9], greater than 100 µM.
For `NCc1ccc(Cl)cc1CNC(=O)[C@@H]1C[C@H](N)CN1C(=O)[C@@H](CC(=O)N1CCCCC1)NS(=O)(=O)Cc1ccccc1` [Compound 2.6], the Ki in assay [1] is 0.335 µM; in assay [2] it was greater than 30 µM; in assay [3], greater than 100 µM; in assay [4], 5.05 µM; at human Factor Xa it was 0.049 nM; in [5] it was 0.00018 µM. Besides, the Ki in assay [6] is greater than 50 µM; in assay [7], greater than 20 µM; in assay [8] it was 8.75 µM; in assay [9], greater than 20 µM.
As for `NCc1ccc(Cl)cc1CNC(=O)[C@@H]1C[C@@H](N)CN1C(=O)[C@@H](CC(=O)N1CCCCC1)NS(=O)(=O)Cc1ccccc1` [Compound 2.7], the Ki in assay [1] is 0.322 µM; in assay [2], greater than 50 µM; in assay [3], greater than 50 µM; in assay [4] it was 15.3 µM; at human Factor Xa, 0.18 nM; in assay [5], 0.00057 µM. In addition, the Ki in [6] was greater than 50 µM; in assay [7], greater than 30 µM; in [8], 11.9 µM; in assay [9], greater than 20 µM.
As to `NCc1ccc(Cl)cc1CNC(=O)[C@@H]1CCCN1C(=O)[C@@H](CC(=O)N1CCCC1)NS(=O)(=O)Cc1ccccc1` [Compound 2.8], the Ki in assay [1] is 0.337 µM; in [2], greater than 80 µM; in [3], greater than 40 µM; in assay [4], greater than 10 µM; at human Factor Xa, 0.13 nM; in assay [5] it was 0.00021 µM. For the same compound, the Ki was greater than 100 µM in [6], greater than 50 µM in [7], greater than 20 µM in assay [8] and greater than 100 µM in assay [9].
For the compound `NCc1ccc(Cl)cc1CNC(=O)[C@@H]1CCCN1C(=O)[C@@H](CC(=O)N1CC[C@@H](O)C1)NS(=O)(=O)Cc1ccccc1` [Compound 2.9], the Ki in assay [1] was 0.93 µM; in [2], greater than 100 µM; in [3], greater than 25 µM; in assay [4] it was greater than 20 µM; at human Factor Xa it was 2.5 nM; in assay [5], 0.0012 µM. Besides, the Ki in assay [6] was greater than 200 µM; in assay [7], greater than 50 µM; in assay [8], greater than 10 µM; in assay [9] it was greater than 50 µM.
Consider `NCc1ccc(Cl)cc1CNC(=O)[C@@H]1CCCN1C(=O)[C@@H](CC(=O)N1CC[C@H](O)C1)NS(=O)(=O)Cc1ccccc1` [Compound 2.10], for which the Ki is 0.83 µM in [1]; greater than 100 µM in assay [2]; greater than 20 µM in assay [3]; greater than 10 µM in assay [4]; 1.1 nM on human Factor Xa; 0.0009 µM in [5]. For the same compound, the Ki was greater than 100 µM in assay [6], greater than 20 µM in [7], greater than 10 µM in assay [8] and greater than 20 µM in [9].
Turning to `NCc1ccc(Cl)cc1CNC(=O)[C@@H]1CCCN1C(=O)[C@@H](CC(=O)N1CC[C@@H](N)C1)NS(=O)(=O)Cc1ccccc1` [Compound 2.11], the Ki in assay [1] is 3.35 µM; in [2] it was greater than 20 µM; in assay [3], greater than 50 µM; in assay [4], greater than 100 µM; at human Factor Xa, 14 nM; in [5] it was 0.0059 µM. Also, the Ki in assay [6] is greater than 50 µM; in assay [7] it was greater than 100 µM; in assay [8], greater than 100 µM; in [9], greater than 50 µM.
For the compound `NCc1ccc(Cl)cc1CNC(=O)[C@@H]1CCCN1C(=O)[C@@H](CC(=O)N1CC[C@H](N)C1)NS(=O)(=O)Cc1ccccc1` [Compound 2.12], the Ki in assay [1] was 1.69 µM; in assay [2] it was greater than 50 µM; in [3], greater than 25 µM; in assay [4], greater than 100 µM; on human Factor Xa it was 14 nM; in assay [5], 0.0029 µM. In addition, the Ki in assay [6] was greater than 20 µM; in assay [7], greater than 30 µM; in [8], greater than 25 µM; in [9], greater than 100 µM.
As for `NCc1ccc(Cl)cc1CNC(=O)[C@@H]1CNCCN1C(=O)[C@@H](CC(=O)N1CCCCC1)NS(=O)(=O)Cc1ccccc1` [Compound 2.13], the Ki was 8.56 µM in assay [1]; greater than 100 µM in assay [2]; greater than 30 µM in [3]; greater than 40 µM in [4]; 1.4 nM on human Factor Xa; 0.0051 µM in assay [5]. The Ki in assay [6] is greater than 20 µM; in [7], greater than 60 µM; in assay [8], greater than 100 µM; in assay [9], greater than 30 µM.
Consider `NCc1ccc(Cl)cc1CNC(=O)[C@@H]1CCCCN1C(=O)[C@@H](CC(=O)N1CCOCC1)NS(=O)(=O)Cc1ccccc1` [Compound 2.14], for which the Ki in assay [1] is 4.53 µM; in assay [2], greater than 50 µM; in assay [3], greater than 20 µM; in [4], greater than 50 µM; at human Factor Xa, 8.3 nM; in [5], 0.0003 µM. Besides, the Ki was greater than 20 µM in [6], greater than 50 µM in assay [7], greater than 50 µM in [8] and greater than 50 µM in assay [9].
In the case of `NCc1ccc(Cl)cc1CNC(=O)[C@@H]1CCCCN1C(=O)[C@@H](CCC(=O)N1CCOCC1)NS(=O)(=O)Cc1ccccc1` [Compound 2.15], the Ki in assay [1] was 7.2 µM; in assay [2] it was greater than 50 µM; in [3] it was greater than 10 µM; in [4] it was greater than 10 µM; at human Factor Xa, 9.4 nM; in assay [5], 0.0007 µM. The Ki is greater than 10 µM in [6], greater than 50 µM in assay [7], greater than 5 µM in assay [8] and greater than 20 µM in [9].
